# Results from patent US20070041904A1, “Peptides whose uptake by cells is controllable” (priority 2003, published 2007).
# Assays:
# [1] = test system: human squamous cell carcinoma specimens; test: Staining of freshly resected squamous cell carcinoma slices
# Description: Squamous Cell Carcinoma Specimens. Human squamous cell carcinoma specimens from planned resections of neoplasms were collected postoperatively according to a protocol with institutional review board approval. The specimens were in ice-cold normal saline for 30 min during transport back to the laboratory, where they were cut by hand to ≈1-mm-thick slices, added to 1 ml of 1 μM peptide for 15 min at room temperature, rinsed five times for 2 min in 1 ml of HBSS, cryosectioned, and imaged as described above.
# ACPPs Light Up Human Squamous Cell Carcinomas. Although human tumor cell lines xenografted into immunodeficient mice are popular cancer models, they fail to mimic many aspects of real human tumors. […] Contrast, defined as (tumor tissue fluorescence−autofluorescence)/(normal tissue fluorescence−autofluorescence), was almost eight in this example. […]
# Images from tumor tissue treated with cleavable peptide are much clearer than are images from similar tumor tissue treated with “scrambled” uncleavable peptides and are much clearer than images from normal tongue tissue treated with cleavable peptide. […] Sections were taken for fluorescence microscopy using a low-power objective, and tissue type was verified by staining tissue. […]
# Jurkat cells [2] = test: 99mTc-labeled ACPP uptake into Jurkat cells, gamma counting; format: cell-based, human; conditions: for increase in cell-associated radioactivity after cleavage: MMP-9 cleaved vs intact
# Description: ACPPs may be used to deliver radioactive cargo to target cells and tissues. […] Spiked with 0.25 mCi Tc label, 25 nM intact or cleaved substrate. The target Jurkat cells were incubated with the peptides for 30 min at 37° C., and then washed 3 times with HBSS (HEPES-buffered saline solution) at room temperature (RT). 20 hours later, cells were counted by Gamma counter.
# Spiked (4%) with 60 μCi ^99mTc-labeled peptide, the target Jurkat cells were loaded with 2 μM intact or MMP-9-cleaved peptide at 37° C. for 30 min. Then, the cells were washed with RT HBSS 3 times, and counted (Gamma counter) 20 hours later.
# The use of ACPP labeled with technetium-99m (^99mTc) as described in Example 19 can be extended for use as an imaging agent for mouse models of cancer. One obvious advantage of gamma scintigraphy as compared to fluorescent imaging is that gamma imaging reaches much deeper into tissue. As described above, various carrier-conjugated ACPPs that incorporate N-epsilon-bis(2-pyridylmethyl)lysine (DPK), a high-affinity chelator for technetium tricarbonyl, Tc(CO)3, have been prepared. […] The simplest of these compounds, (11 KDa-mPEG)-e9-XPLGLAG-r9-[DPK-^99mTc(CO)3] was first tested on isolated cultured cells. (Note: X denotes a 6-aminohexanoyl spacer, and lower case letters denote D-amino acids.) Before cleavage, the uptake of this CPP into Jurkat lymphocytes was only 1.9% of the positive control CPP, r9-[DPK-^99mTc(CO)3].
# Jurkat cells [3] = test: Gd-labeled ACPP uptake into Jurkat cells, ICP-MS; format: cell-based, human
# Description: Gadolinium chloride (GdCl3) is used to add gadolinium (Gd) to provide a contrast-enhancing, PEGylated ACPP mPEG-S—CH2CONH-e9-ahx-PLGLAG-r9-K[DOTA(Gd)]-CONH2 (SEQ ID NO: 75). It will be understood that in other embodiments the ACPP need not include a PEG moiety, and may include other moieties as well. […] Jurkat cells were incubated with 8 μM of the intact or of the cleaved substrate at 37° C. for 30 min; then the cells were washed four times with RT HBSS. Gd concentration was determined by ICP-MS (inductively coupled plasma mass spectroscopy). Cleavage led to a 19-fold increase in uptake by target cells.
# Three ACPPs carrying Gd^3+ were synthesized: (11-KDa-mPEG)-e9-XPLGLAG-r9-K(DOTA-Gd), Suc9-(70 KDa dextran)-e9-XPLGLAG-r9-K(DOTA-Gd), and Suc9-(70 KDa dextran)-e9-XPLGLAX-r9-K(DOTA-Gd). The first of these ACCPs was tested at 8 μM on isolated Jurkat lymphocytes. Gd^3+ uptake was measured by inductively coupled plasma mass spectroscopy. […] Thus, MMP-mediated cleavage of the test peptide increased uptake by a factor of 19-fold […].
# [4] = test system: neprilysin / meprin / MMP-9; test: In-vitro phage selection, Nep/Mep/MMP-9
# Description: (§1) In-vitro selection strategies involved screening for phage that are specifically cleaved by purified enzymes or tissue extracts associated with tumor tissue while also selecting against cleavage by enzymes and extracts associated with normal tissue. […] The inventors have employed two different in-vitro selection paradigms. In the initial selection, the 2.5×10^6 diversity M13 library was treated with the kidney proteases meprin and neprilysin for 3 hours. Ni-NTA agarose (Qiagen) was then added and allowed to bind to the phage for 5-15 minutes, then the Ni-NTA agarose carrying the phage was resuspended with MMP-9 and incubated at 37 for 2-3 hours. After removing the beads by centrifugation, phage released into the supernatant were plated with fresh bacteria. This procedure selects for phage that remain uncleaved by kidney proteases but are then released by MMP-9. This procedure was repeated for as many as six rounds with representative phage being isolated and sequenced to monitor the selection process. The same selection procedure was also performed with liver/kidney extract instead of meprin/neprilysin and tumor extract instead of MMP-9. The resulting sequences are tabulated below. The most promising peptides were chemically resynthesized with flanking e9 and r9 sequences and a C-terminal fluorescein tag. They were then assayed by tricine gel electrophoresis for cleavage by tumor, liver, kidney extracts and MMP-9.
# [5] = Phage display selection, all screens
# Description: (§2) In-vivo selections were performed by injection of phage libraries into mice either containing tumor xenografts (HT1080 cells) or mammary tumors in transgenic mice (MMTV-PyMT). Tumor tissues were removed 3-24 hrs after injection. The rescued phage were re-amplified in bacteria and reinjected into another mouse for up to 7 iterative cycles of selection. Representative phage were isolated at each round and sequenced to monitor the selection process.
# as §1
# furin = test: Furin inhibition assay; format: biochemical
# Description: The furin assay was performed with Boc-Arg-Val-Arg-Arg-MCA substrate (Bachem) at a final concentration of 200 μM in 100 μl of 100 mM MES/NaOH, pH 7.0, containing 1 mM CaCl2. Inhibitory peptides were pre-incubated with 1 unit furin enzyme (NEB) for 30 min prior to addition of substrate. Assays were performed in triplicate by incubation at 37° C. for 4 hours in a 96-well clear-bottom black-wall Costar plate. Release of MCA was measured by excitation at 380 nm and emission at 460 nm. IC50's were determined as the concentration of inhibitor required to inhibit 50% of the emission increase at 460 nm over the no-enzyme control. […]
# [6] = In-vitro phage selection, liver/kidney/tumor extracts
# Description: as §1
# MMP-2 = test: Cleavage kinetics for MMP-2 cleavage; format: biochemical
# Text: Cleavage kinetics for MMP-2 cleavage of H2N-e6-XPLGLAG-r9-Xc(Cy5)-CONH2 (where X≡aminohexanoic acid) are illustrated in FIG. 27.
# Cleavage of a MMP-2 substrate ACPP is illustrated in FIG. 27.
# [7] = test system: HT1080 tumor xenografts or mammary tumors (MMTV-PyMT); test: In-vivo phage selection; set-up: species or system mice; conditions: mouse
# Description: as §2
# HT-1080 tumors = test: In vivo fluorescence imaging of HT-1080 tumor xenografts; set-up: species or system nude mice; conditions: mean±SE
# Description: Xenografts in Mice. Nude mice (age, 4-6 weeks) were injected s.c. with ≈10^6 HT-1080 cells. […] Animals were then imaged at various times by using a Nikon f/1.2 camera lens in front of a cooled charge-coupled device camera (SenSys, Photometrics, Tucson, Ariz.). For longer lasting imaging studies, animals were allowed to wake up after 2 h of anesthesia and were reanesthetized at ≈4 and 6 hr for further data collection. […] After imaging was ended, animals were killed with halothane, and organs of interest were harvested and weighed. […] Cy5 fluorescence was imaged as described above.
# We next tested whether ACPPs could light up protease expressing human tumor xenografts in whole mice. We chose HT-1080 tumors in the axilla of nude mice because these tumors express both MMP-2 and MMP-9 and have been used to test other MMP-2 cleavable contrast agents (22, 26). […] Anesthetized mice were injected through the tail vein with either an MMP-2 cleavable ACPP, an isomeric scrambled version verified not to be a substrate for MMP-2 or MMP-9, or an all-D-amino acid version. […] To quantitate the results, we measured the contrast index defined as (fluorescence intensity of tumor−autofluorescence)/(fluorescence of normal contralateral region−autofluorescence).
# furin, sequence (P09958 108-576 limits assumed): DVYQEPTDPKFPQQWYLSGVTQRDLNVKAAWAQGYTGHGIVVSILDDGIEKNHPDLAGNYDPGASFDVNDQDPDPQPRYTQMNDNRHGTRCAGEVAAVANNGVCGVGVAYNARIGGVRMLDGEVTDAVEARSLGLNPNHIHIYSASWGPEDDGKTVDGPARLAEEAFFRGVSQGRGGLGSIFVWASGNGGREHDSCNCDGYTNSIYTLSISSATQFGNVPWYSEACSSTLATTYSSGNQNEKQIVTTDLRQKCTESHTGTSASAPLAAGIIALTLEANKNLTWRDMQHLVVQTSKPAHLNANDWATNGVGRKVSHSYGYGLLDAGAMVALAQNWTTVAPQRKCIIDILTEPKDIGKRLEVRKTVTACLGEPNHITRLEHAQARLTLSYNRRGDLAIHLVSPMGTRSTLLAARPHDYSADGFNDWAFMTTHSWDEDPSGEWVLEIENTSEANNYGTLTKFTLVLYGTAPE
substance,measurement,setting,value
(5 kDa PEG)-eeeeeeeeeXPLGLAG-rrrrrrrrrXk(Cy5) [cleavable peptide],"contrast, relatively differentiated oral cavity_oropharynx tumors","[1]; mean±SD, two patients",2.7±0.2
same,"contrast, high-grade laryngeal tumors",[1]; two tumors,6.5±3.4
(11 KDa-mPEG)-e9-XPLGLAG-r9-[DPK-^99mTc(CO)3],increase in cell-associated radioactivity after cleavage,Jurkat cells [2],57 -fold
same,"uptake after cleavage, % of positive control",Jurkat cells [2]; after MMP-9,107%
same,"uptake before cleavage, % of positive control CPP",Jurkat cells [2]; positive control r9-[DPK-99mTc(CO)3],1.9%
(11-KDa-mPEG)-e9-XPLGLAG-r9-K(DOTA-Gd),increase in Gd uptake after cleavage,Jurkat cells [3]; 8 μM,19 -fold
same,"Gd3+ uptake, MMP-9-cleaved peptide","Jurkat cells [3]; 8 μM, ICP-MS",737 µM
same,"Gd3+ uptake, intact peptide","Jurkat cells [3]; 8 μM, ICP-MS",39 µM
ARKRSQ,# times identified in Nep/Mep/MMP-9 screen,[4],2
same,Total # times isolated,[5],2
Ac-r9-k-NH2 [reference compound],IC50,furin; intact / uncleaved peptide,3.4 µM
DSNAES,# times identified in liver/kidney/tumor screen,[6],1
same,# times identified in Nep/Mep/MMP-9 screen,[4],3
same,Total # times isolated,[5],4
DVGTTE,# times identified in Nep/Mep/MMP-9 screen,[4],5
same,Total # times isolated,[5],5
FMEIET,# times identified in Nep/Mep/MMP-9 screen,[4],3
same,Total # times isolated,[5],3
GGHTRQ,# times identified in Nep/Mep/MMP-9 screen,[4],2
same,Total # times isolated,[5],2
GLWQGP,# times identified in liver/kidney/tumor screen,[6],7
same,Total # times isolated,[5],7
GMMYRS,# times identified in liver/kidney/tumor screen,[6],3
same,# times identified in Nep/Mep/MMP-9 screen,[4],1
same,Total # times isolated,[5],4
H2N-e6-XPLGLAG-r9-Xc(Cy5)-CONH2,Km,MMP-2,534 µM
same,kcat,MMP-2,15.0 s⁻¹
same,kcat/Km,MMP-2,"28,037 M^−1s^−1"
HEVVAG,# times identified in Nep/Mep/MMP-9 screen,[4],2
same,Total # times isolated,[5],2
IDKQLE,# times identified in Nep/Mep/MMP-9 screen,[4],3
same,Total # times isolated,[5],3
INGKVT,# times identified in Nep/Mep/MMP-9 screen,[4],2
same,Total # times isolated,[5],2
ITDMAA,# times identified in in-vivo screen,[7],1
same,# times identified in liver/kidney/tumor screen,[6],3
same,Total # times isolated,[5],4
LPGMMG,# times identified in liver/kidney/tumor screen,[6],5
same,Total # times isolated,[5],5
QCTGRF,# times identified in in-vivo screen,[7],1
same,# times identified in liver/kidney/tumor screen,[6],4
same,# times identified in Nep/Mep/MMP-9 screen,[4],1
same,Total # times isolated,[5],6
RLQLKL,# times identified in in-vivo screen,[7],1
same,# times identified in liver/kidney/tumor screen,[6],11
same,Total # times isolated,[5],12
RWRTNF,# times identified in Nep/Mep/MMP-9 screen,[4],4
same,Total # times isolated,[5],4
TDLGAM,# times identified in liver/kidney/tumor screen,[6],5
same,Total # times isolated,[5],5
TSAVRT,# times identified in in-vivo screen,[7],2
same,Total # times isolated,[5],2
WRNTIA,# times identified in Nep/Mep/MMP-9 screen,[4],3
same,Total # times isolated,[5],3
WRPCES,# times identified in in-vivo screen,[7],1
same,# times identified in Nep/Mep/MMP-9 screen,[4],2
same,Total # times isolated,[5],3
[11 kDa PEG]-X-e9-XPLG*LAG-r9 [cleavable ACPP],contrast index (tumor−autofluorescence)/(normal contralateral−autofluorescence),HT-1080 tumors,2.1±0.17
[11 kDaPEG]-X-e9-XLALGPG-r9 [scrambled isomer],contrast index (tumor−autofluorescence)/(normal contralateral−autofluorescence),HT-1080 tumors,1.3±0.16
[11-kDa PEG]-X-e9-Xplglag-r9-Xk(Cy5) [all-D-amino acid control],contrast index (tumor−autofluorescence)/(normal contralateral−autofluorescence),HT-1080 tumors,1.5±0.11
decanoyl-RVKR-chloromethylketone [reference compound],IC50,furin; control inhibitor,0.027 µM
e9-XPLGLAG-r9-Xk-NH2,IC50,furin; intact / uncleaved peptide,27 µM
mPEG(11 kd)-S—CH2—CONH-ahx-e9-ahx-PLGLAG-r9-ahx-k-CONH2,increase in cell-associated radioactivity after cleavage,Jurkat cells [2],38 -fold
mPEG(11kd)-e9-XPLGLAG-r9-Xk-NH2,IC50,furin; intact / uncleaved peptide,> 50 µM
mPEG-S—CH2CONH-e9-ahx-PLGLAG-r9-K[DOTA(Gd)]-CONH2,increase in Gd uptake after cleavage,Jurkat cells [3]; 8 μM,19 -fold
r9-K(DOTA-Gd) [reference compound],"Gd3+ uptake, positive control CPP",Jurkat cells [3]; ICP-MS,504 µM
